In publication PMC6449863, “Rational Design of Antiangiogenic Helical Oligopeptides Targeting the Vascular Endothelial Growth Factor Receptors” (Frontiers in Chemistry, 2019):
Square brackets hold non-standard residues; d marks the D form. Peptide text beside a SMILES is read from it. Aib = CC(C)(N)C(=O)O

Experiments:
[1] = target: T1, extracellular domain of VEGFR-1 (Homo sapiens, UniProt P17948); assay: Chemiluminescent assay: inhibition of biotinylated VEGF165 binding to isolated VEGFR-1; conditions: peptide at 500 μM; chemiluminescence read-out
T1 construct: the extracellular domain of VEGFR-1; purchased R&D Systems
T1 sequence (P17948 27-758 limits assumed): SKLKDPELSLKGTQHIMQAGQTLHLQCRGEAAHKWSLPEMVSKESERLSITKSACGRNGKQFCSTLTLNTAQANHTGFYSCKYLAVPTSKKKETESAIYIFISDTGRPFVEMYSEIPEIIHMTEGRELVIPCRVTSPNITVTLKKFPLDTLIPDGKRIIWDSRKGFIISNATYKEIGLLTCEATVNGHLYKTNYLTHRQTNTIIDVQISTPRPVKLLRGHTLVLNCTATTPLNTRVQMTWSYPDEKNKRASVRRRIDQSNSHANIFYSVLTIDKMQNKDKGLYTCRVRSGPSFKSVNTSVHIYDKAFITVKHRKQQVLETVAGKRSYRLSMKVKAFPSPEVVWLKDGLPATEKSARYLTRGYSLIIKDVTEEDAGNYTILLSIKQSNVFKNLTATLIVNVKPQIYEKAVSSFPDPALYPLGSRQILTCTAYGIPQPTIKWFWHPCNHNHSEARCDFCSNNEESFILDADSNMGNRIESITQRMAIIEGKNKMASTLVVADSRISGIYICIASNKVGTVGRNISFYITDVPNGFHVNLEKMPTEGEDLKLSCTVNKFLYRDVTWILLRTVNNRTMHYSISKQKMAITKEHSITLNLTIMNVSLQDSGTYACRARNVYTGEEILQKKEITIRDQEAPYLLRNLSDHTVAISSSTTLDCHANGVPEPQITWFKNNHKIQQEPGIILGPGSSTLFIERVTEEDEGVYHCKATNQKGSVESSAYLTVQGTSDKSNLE
Source text: A chemiluminescent assay to determine the inhibition of complex formation between VEGF-A (isoform VEGF165) and the extracellular domain of VEGFR-1 (Goncalves et al., [2007]; García-Aranda et al., [2013]) had been previously employed in our group (Zanella et al., [2015]). VEGF-C (from which analogue 1 was derived) is not selective for VEGFR-1 (Su et al., [2007]), but unfortunately the same assay protocol turned out to be ineffective with VEGFR-2, at least in our hands. The assay based on VEGFR-1 was therefore applied here as a very stringent test of the affinity of our peptides for VEGFRs, and to assess the different peptides comparatively. All peptides were able to inhibit complex formation (Table 3), although in the high micromolar range. […] Further studies were focused on analogues 5 and 6, considering also the higher stability of their secondary structure, which affects resistance to proteolytic degradation.
The chemiluminescent screening assay for the detection of VEGFR-1 ligands was accomplished according to the procedure described in the Supporting Information. […]
horseradish peroxidase diluted at 1:1000 in PBS containing 0.1% (v/v) Tween 20 and 0.3% (w/v) BSA were added per well. Af ter 1 h of incubation at r.t., the plate was washed f ive times with 150 μL of buffer A and 100 μL of SuperSignal W est Pico Chemiluminescent Substrate (Pierce, Rockford, IL, USA) were added. The remaining bt-VEGF165 was detected by chemiluminescence, which was quantif ied with a Synergy™ HT Multi -Detection Microplate Reader (BioTek Instruments, Inc.). The percentages of btVEGF165 displacement were calculated by the following formula: percentage of displacement = 100×[1−( S−NS) / (MS−NS)], where S is the signal measured, NS is the nonspecific binding signal and MS is the maximum binding signal observed with btVEGF165 without tested compounds. […]
loading: 0.5 mmol/g) were used.
Each coupling step consisted in:
1) activation of the Fmoc-protected amino acid;
2) addition of the activated amino acid to the resin at the synthesizer to start the coupling; 3) steps of capping, deprotection and washing.
To perform the automated SPPS, two solutions and two solvents were prepared: 25% Ac2O in DMF (v/v), 25% piperidine in DMF (v/v), methanol and DMF. W hile MeOH was used only as washing solvent, DMF was necessary either for washings and as solvent for the reactions of coupling, capping and deprotection. […]

[2] = system: trypsin; assay: Resistance to proteolytic degradation, trypsin; format: in vitro ADME; conditions: Tris·HCl 50 mM pH 7.8, 37°C, RP-HPLC C18 read-out
Protocol: (§1) The proteolytic stability of peptides 1, 5, and 6 was assessed against three enzymes: pronase, trypsin and chymotrypsin (Sigma-Aldrich). Each peptide was dissolved in the appropriate buffer [i.e., (2-amino-2-hydroxymethyl-propane-1,3-diol (Tris)·HCl 20 mM, containing 20 mM CaCl2 pH 7.6 for pronase; Tris·HCl 50 mM, pH 7.8 for trypsin and chymotrypsin). Then, it was incubated with and without the enzyme solution (1.25 μg of enzyme in […] buffer) at 37°C for 12 h. The mixture was analyzed by RP-HPLC (column: Phenomenex Jupiter 5 μ C18 300 Å) every ten minutes for the first hour, then every half hour. Gradients: 5–25%B in 10 min for peptide 1; 15–35%B in 10 min for peptide 5; 15–25%B in 10 min for peptide 6. Eluants: A, H2O:CH3CN 9/1 + 0.05% trifluoroacetic acid (TFA); B: CH3CN:H2O 9/1 + 0.05% TFA.

[3] = system: chymotrypsin; assay: Resistance to proteolytic degradation, chymotrypsin; format: in vitro ADME; conditions: Tris·HCl 50 mM pH 7.8, 37°C, RP-HPLC C18 read-out
Protocol: as §1

[4] = system: pronase; assay: Resistance to proteolytic degradation, pronase; format: in vitro ADME; conditions: Tris·HCl 20 mM with 20 mM CaCl2 pH 7.6, 37°C, RP-HPLC C18 read-out
Protocol: as §1

[5] = target: T1, extracellular domain of VEGFR-1; conditions: chemiluminescent VEGFR-1 ligand screening assay; ref Zanella et al., 2015; read-out: IC50 of unlabeled VEGF165 (reference compound); cited from earlier work
Source text: The chemiluminescent screening assay for the detection of VEGFR-1 ligands was accomplished according to the procedure described in the Supporting Information.

Row | inhibition at 500 µM [1] | Compound | also measured
1 | 40 ± 10% | CC(=O)NC(C)(C)C(=O)N[C@@H](Cc1c[nH]c2ccccc12)C(=O)N[C@@H](CC(=O)O)C(=O)N[C@@H](CC(N)=O)C(=O)NC(C)(C)C(=O)N[C@@H](Cc1c[nH]c2ccccc12)C(=O)N[C@@H](CCCNC(=N)N)C(=O)N[C@@H](CCCCN)C(=O)NC(C)(C)C(=O)N[C@@H](Cc1c[nH]c2ccccc12)C(N)=O [Peptide 4, Ac-Aib-Trp- Asp-Asn-Aib-Trp- Arg -Lys-Aib-Trp-amide] (Ac-[Aib]WDN[Aib]WRK[Aib]W-NH2) | 
2 | 27 ± 1% | Ac-IDNEWRKTQ-NH2 [Peptide 1, Ac-Ile-Asp-Asn-Glu-Trp-Arg -Lys-T hr -Gln-amide] | time within which peptide was degraded by trypsin [2]: ≤ 15 min; time within which peptide was degraded by chymotrypsin [3]: ≤ 15 min; time within which peptide was degraded by pronase [4]: ≤ 15 min

Second part, the compound before the results:

Row | Compound | inhibition at 500 µM [1] | also measured
3 | CC[C@H](C)[C@H](NC(=O)C(C)(C)NC(C)=O)C(=O)N[C@@H](CC(=O)O)C(=O)N[C@@H](CC(N)=O)C(=O)NC(C)(C)C(=O)N[C@@H](Cc1c[nH]c2ccccc12)C(=O)N[C@@H](CCCNC(=N)N)C(=O)N[C@@H](CCCCN)C(=O)NC(C)(C)C(=O)N[C@@H](CCC(N)=O)C(N)=O [Peptide 3, Ac-Aib-Ile-Asp-As n -Aib-Trp-Arg -Lys-Aib-Gln-amide] (Ac-[Aib]IDN[Aib]WRK[Aib]Q-NH2) | 86 ± 1% | 
4 | Ac-WDNEWRKTW-NH2 [Peptide 2] | 29 ± 7% | 
5 | VEGF165: VEGF-A isoform VEGF165, unlabeled, employed as reference compound in the VEGFR-1 assay |  | IC50 [5]: 0.146 nM
